Experiment [1] concerns the target T1, α1A Human Adrenergic Receptor (Homo sapiens, UniProt P25100).
T1 construct: The entire coding region of α1A (1719 bp); expressed in transfected cells
T1 sequence (P25100 1-572): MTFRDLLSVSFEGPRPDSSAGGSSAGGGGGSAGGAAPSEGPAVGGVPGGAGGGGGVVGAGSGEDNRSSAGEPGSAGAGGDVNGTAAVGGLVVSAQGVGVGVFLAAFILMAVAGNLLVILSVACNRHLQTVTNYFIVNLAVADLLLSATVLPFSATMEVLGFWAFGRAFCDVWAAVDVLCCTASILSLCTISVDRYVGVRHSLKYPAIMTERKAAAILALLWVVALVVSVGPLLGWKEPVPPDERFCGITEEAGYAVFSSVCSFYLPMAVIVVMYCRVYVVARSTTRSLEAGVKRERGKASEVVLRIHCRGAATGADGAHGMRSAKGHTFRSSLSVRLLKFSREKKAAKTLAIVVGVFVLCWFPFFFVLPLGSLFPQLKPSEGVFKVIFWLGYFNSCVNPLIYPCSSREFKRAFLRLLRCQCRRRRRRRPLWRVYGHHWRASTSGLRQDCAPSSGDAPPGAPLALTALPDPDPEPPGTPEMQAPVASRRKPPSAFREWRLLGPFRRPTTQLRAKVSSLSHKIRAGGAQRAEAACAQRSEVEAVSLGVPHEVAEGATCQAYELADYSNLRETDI
Kind of experiment: Radioligand binding, [3H]prazosin, cloned human α1A adrenergic receptor. A digest of the protocol: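 Filter-bound radioactivity measured [3H]prazosin (0.5 nM) binding to membranes of LM(tk−) cells expressing the human α1A receptor after 20 min at 37° C. Phentolamine at 10 μM set nonspecific binding.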

In another experiment the target is T2, L-type calcium channel (Rattus norvegicus, UniProt P22002).
T2 construct: membrane fragments of rat cardiac muscle; from tissue; host or cells: rat cardiac muscle membranes
T2 sequence (P22002 whole entry, other chains not shown, the tested form may be a part): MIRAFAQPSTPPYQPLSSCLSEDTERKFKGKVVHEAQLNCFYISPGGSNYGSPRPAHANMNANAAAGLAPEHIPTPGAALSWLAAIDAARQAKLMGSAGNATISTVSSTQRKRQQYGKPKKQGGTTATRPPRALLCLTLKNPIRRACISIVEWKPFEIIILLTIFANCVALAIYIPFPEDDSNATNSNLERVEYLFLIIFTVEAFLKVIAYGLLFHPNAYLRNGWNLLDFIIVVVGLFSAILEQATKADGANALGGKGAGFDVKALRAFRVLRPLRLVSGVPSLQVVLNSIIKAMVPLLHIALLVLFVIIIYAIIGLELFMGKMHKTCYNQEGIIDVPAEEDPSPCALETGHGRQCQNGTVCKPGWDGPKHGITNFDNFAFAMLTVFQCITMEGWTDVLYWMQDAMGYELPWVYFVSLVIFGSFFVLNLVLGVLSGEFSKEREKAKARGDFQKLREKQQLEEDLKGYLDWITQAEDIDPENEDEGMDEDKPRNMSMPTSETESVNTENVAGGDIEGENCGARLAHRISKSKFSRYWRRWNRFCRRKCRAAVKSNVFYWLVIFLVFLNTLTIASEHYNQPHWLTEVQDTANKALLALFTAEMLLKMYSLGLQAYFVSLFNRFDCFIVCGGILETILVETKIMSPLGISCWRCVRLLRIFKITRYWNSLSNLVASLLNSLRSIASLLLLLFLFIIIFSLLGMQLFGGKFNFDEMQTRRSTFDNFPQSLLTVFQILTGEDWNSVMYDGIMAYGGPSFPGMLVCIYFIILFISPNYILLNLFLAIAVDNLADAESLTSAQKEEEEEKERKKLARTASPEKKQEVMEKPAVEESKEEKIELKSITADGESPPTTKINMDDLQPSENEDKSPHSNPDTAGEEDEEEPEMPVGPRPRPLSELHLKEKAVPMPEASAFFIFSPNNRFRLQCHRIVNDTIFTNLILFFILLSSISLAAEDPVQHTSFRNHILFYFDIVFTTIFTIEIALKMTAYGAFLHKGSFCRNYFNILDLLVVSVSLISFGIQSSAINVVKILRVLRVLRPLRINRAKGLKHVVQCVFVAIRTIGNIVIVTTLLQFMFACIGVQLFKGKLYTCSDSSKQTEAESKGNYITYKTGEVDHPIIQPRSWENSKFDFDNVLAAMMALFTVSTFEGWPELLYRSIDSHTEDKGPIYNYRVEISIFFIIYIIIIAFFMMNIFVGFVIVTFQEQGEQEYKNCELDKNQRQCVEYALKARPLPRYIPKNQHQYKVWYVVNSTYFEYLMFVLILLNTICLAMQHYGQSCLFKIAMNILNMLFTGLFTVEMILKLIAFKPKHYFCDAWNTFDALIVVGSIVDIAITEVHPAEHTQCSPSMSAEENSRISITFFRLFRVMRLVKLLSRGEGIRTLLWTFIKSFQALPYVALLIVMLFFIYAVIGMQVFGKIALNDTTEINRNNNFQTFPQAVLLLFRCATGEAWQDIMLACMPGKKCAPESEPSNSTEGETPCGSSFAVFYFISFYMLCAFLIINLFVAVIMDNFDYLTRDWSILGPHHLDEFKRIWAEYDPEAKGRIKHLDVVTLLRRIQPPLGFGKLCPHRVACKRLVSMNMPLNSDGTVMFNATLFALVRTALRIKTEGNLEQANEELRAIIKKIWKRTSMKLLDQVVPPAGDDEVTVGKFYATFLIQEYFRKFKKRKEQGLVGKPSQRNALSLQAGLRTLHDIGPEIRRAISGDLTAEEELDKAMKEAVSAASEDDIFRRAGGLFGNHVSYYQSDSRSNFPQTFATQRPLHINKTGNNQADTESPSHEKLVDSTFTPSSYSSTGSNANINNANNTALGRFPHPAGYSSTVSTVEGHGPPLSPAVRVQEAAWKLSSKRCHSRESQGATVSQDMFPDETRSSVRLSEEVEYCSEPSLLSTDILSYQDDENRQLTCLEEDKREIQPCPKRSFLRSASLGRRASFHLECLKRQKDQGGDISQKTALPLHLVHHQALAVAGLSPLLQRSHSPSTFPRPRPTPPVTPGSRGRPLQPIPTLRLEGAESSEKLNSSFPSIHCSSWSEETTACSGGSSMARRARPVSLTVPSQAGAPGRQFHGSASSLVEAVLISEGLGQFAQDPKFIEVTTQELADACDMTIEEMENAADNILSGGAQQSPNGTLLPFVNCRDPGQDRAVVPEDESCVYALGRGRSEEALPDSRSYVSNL
T2 sequence (P54290 25-944 partner limits assumed, other chains not shown): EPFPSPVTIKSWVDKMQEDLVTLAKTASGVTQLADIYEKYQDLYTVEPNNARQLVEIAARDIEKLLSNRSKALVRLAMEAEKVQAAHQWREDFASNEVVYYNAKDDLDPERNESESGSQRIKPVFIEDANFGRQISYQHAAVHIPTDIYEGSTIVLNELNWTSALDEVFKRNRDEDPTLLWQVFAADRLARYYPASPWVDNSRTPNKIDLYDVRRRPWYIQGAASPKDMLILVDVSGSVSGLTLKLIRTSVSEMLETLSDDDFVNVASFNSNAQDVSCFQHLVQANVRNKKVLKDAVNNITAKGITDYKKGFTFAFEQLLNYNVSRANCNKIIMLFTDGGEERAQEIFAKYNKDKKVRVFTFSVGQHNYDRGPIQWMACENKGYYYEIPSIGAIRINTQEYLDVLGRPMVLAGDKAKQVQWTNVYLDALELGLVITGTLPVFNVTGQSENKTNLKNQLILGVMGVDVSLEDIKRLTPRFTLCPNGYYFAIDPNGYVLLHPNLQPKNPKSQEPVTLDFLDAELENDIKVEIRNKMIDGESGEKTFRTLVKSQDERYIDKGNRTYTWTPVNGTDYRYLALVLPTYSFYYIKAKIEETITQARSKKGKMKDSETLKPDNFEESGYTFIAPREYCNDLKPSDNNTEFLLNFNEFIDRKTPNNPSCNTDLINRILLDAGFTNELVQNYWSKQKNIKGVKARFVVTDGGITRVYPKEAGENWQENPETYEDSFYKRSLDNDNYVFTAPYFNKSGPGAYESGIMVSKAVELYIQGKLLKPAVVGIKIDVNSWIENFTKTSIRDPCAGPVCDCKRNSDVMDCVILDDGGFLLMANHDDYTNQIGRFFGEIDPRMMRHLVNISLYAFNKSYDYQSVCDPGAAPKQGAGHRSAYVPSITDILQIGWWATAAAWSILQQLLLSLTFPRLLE
T2 sequence (P54290 945-1091 partner limits assumed, other chains not shown): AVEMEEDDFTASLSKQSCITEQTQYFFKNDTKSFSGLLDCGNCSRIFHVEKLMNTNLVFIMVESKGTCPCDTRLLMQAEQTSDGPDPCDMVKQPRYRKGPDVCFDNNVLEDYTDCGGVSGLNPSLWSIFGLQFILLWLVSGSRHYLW
Kind of experiment: Competition binding of [3H]nitrendipine to membrane fragments of rat cardiac muscle.

The target in a further experiment is T3, α2C receptor (Homo sapiens, UniProt P18825).
T3 construct: host or cells: LM(tk-) cells, line L-α2C
T3 sequence (P18825 1-462): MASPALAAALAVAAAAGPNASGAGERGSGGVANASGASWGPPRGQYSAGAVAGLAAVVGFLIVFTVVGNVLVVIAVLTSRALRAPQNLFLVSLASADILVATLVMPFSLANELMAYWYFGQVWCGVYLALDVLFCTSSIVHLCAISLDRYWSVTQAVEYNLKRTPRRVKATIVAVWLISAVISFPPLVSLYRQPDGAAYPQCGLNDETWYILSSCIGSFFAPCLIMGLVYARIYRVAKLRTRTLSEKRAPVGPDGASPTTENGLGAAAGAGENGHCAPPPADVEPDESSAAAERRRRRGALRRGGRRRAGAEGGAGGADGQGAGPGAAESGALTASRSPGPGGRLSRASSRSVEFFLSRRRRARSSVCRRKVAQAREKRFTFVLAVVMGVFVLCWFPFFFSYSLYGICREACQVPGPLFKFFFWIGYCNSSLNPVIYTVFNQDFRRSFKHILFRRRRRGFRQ
The experiment can be described thus: Competition binding, [3H]rauwolscine, human α2C receptor. A digest of the protocol:
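Cell lysates from stably transfected LM(tk−) lines are resuspended in 25 mM glycylglycine (pH 7.6 at room temperature), incubated to equilibrium with 0.5 nM [3H]rauwolscine plus competitor, then filtered through GF/B filters; 10 μM phentolamine defines nonspecific binding.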

Setting [2] is: pKi alpha-1 1a, [3H]prazosin, cloned human receptor in LM(tk-) cell membranes, SEM and n in lines below.
The mark [3] stands for this setting: [3H]nitrendipine, rat cardiac muscle membranes, SEM and n in lines below, read-out: pKi Ca (converted).
The mark [4] stands for this setting: [3H]rauwolscine, LM(tk-) cell line L-α2C, SEM and n in lines below, read-out: pKi alpha-2 2c (converted).
[5] abbreviates: [3H]nitrendipine, rat cardiac muscle membrane fragments, L-type calcium channel, read-out: pKi Ca (converted).

Structures can show the parent of a compound that is named as a salt. Where two headings read alike, the source gives them in different places.

`COC(=O)C1=C(C)NC(C)=C(C(=O)NCCCN2CCC(c3ccccc3)(c3ccccc3)CC2)C1c1ccc([N+](=O)[O-])c(OC)c1` (stereo not drawn) [Example 29, 1,4-Dihydro-3-methoxycarbonyl-4-(3-methoxy-4-nitrophenyl)-2,6-dimethyl-5-(N-(3-(4,4-diphenylpiperidin-1-yl)propyl)carboxamido)pyridine]: the Ki was 0.263 µM in experiment [1] (setting [2]), 13.8 µM at L-type calcium channel (setting [3]) and 0.398 µM at α2C receptor (setting [4]).
As for `CCC1=C(C(N)=O)C(c2ccc([N+](=O)[O-])cc2)C(C(=O)NCCCN2CCC3(CC2)C(=O)NCN3c2ccccc2)=C(CC)N1` (stereo not drawn) [Example 105, 5-Carboxamido-2,6-diethyl-1,4-dihydro-4-(4-nitrophenyl)-3-{N-[3-(1-phenyl-4-oxo-1,3,8-triazaspiro[4.3]decan-8-yl)propyl]}carboxamidopyridine hydrochloride hydrate], the figures for the Ki (in experiment [1] (pKi alpha-1 1a); at L-type calcium channel (pKi Ca); at α2C receptor (pKi alpha-2 2c)) were 2.45 µM, 6.61 µM and 1.38 µM, respectively.
`CC1=C(C#N)C(c2ccc([N+](=O)[O-])cc2)C(C(=O)NCCCN2CCC(c3ccccc3)(c3ccccc3)CC2)=C(C)N1` (stereo not drawn) [Example 37]: the Ki was 0.692 µM in experiment [1] (pKi alpha-1 1a), 1.35 µM at L-type calcium channel (pKi Ca) and 0.575 µM at α2C receptor (pKi alpha-2 2c).
On the same counts, the results for `COC(=O)C1=C(C)NC(C)=C(C(=O)NCCCN2CCC(c3ccccc3)(c3ccccc3)CC2)C1c1ccc(-c2ccccc2)cc1` (stereo not drawn) [Example 7] are 1.17 µM, 0.871 µM and 1.23 µM.
On the same counts, the results for `COC(=O)C1=C(C)NC(C)=C(C(=O)NCCCN2CCC(c3ccccc3)(c3ccccc3)CC2)C1c1ccc(C(F)(F)F)cc1` (stereo not drawn) [Example 1] are 2.57 µM, 6.61 µM and 0.17 µM.
Take `CCC1=C(C(N)=O)C(c2ccc([N+](=O)[O-])cc2)C(C(=O)NCCCN2CCC(c3ccc(OC)cc3)(c3ccc(OC)cc3)CC2)=C(CC)N1` (stereo not drawn) [Example 103, 5-Carboxamido-2,6-diethyl-1,4-dihydro-3-{N-[3-(4,4-bis-(4-methoxyphenyl)piperidin-1-yl)propyl]}carboxamido}-4-(4-nitrophenyl)pyridine hydrochloride]: the Ki in experiment [1] (pKi alpha-1 1a) is 2.51 µM; on L-type calcium channel (pKi Ca) it was 0.178 µM; at α2C receptor (pKi alpha-2 2c) it was 0.269 µM.
In the case of `CCC1=C(C(N)=O)C(c2ccc([N+](=O)[O-])cc2)C(C(=O)NCCCN2CCN(c3ccccc3OC)CC2)=C(CC)N1` (stereo not drawn) [Example 125, 5-Carboxamido-2,6-diethyl-1,4-dihydro-3-(N-{3-[4-(2-methoxyphenyl)piperazin-1-yl]propyl})carboxamido-4-(4-nitrophenyl)pyridine], the Ki was 0.0776 µM in experiment [1] ([3H]prazosin, cloned human α1A receptor, LM(tk−) cell membranes, read-out: pKi alpha-1 1a (converted)); 38 µM on L-type calcium channel (setting [5]); 0.0229 µM on α2C receptor ([3H]rauwolscine, human α2C receptor, LM(tk−) cells, read-out: pKi alpha-2 2c (converted)).
Regarding `CC1=C(C(N)=O)C(c2ccc([N+](=O)[O-])cc2)C(C(=O)NCCN2CCC(c3ccccc3)(c3ccccc3)CC2)=C(C)N1` (stereo not drawn) [Example 54, 5-Carboxamide-1,4-dihydro-2,6-dimethyl-4-(4-nitrophenyl)-3-{N-[2-(4,4-diphenylpiperidin-1-yl)ethyl]}carboxamidopyridine hydrochloride hydrate], the Ki in experiment [1] (setting [2]) was 0.347 µM; on L-type calcium channel (setting [3]), 58.9 µM; on α2C receptor (setting [4]) it was 0.158 µM.
With `COC(=O)C1=C(C)NC(C)=C(C(=O)NCCCN2CCC(c3ccccc3)(c3ccccc3)CC2)C1c1ccc(F)cc1` (stereo not drawn) [Example 20, 4-(4-Fluorophenyl)-1,4-dihydro-3-methoxycarbonyl-2,6-dimethyl-5-(N-(3-(4,4-diphenylpiperidin-1-yl)propyl)carboxamido)pyridine], the figures for the Ki (in experiment [1] (pKi alpha-1 1a); at L-type calcium channel (pKi Ca); at α2C receptor (pKi alpha-2 2c)) were 1.35 µM, 1.15 µM and 0.813 µM, respectively.
The matching figures for `COC(=O)C1=C(C)NC(C)=C(C(=O)NCCCN2CCC(c3ccccc3)(c3ccccc3)CC2)C1c1cc(OC)c(OC)c(OC)c1` (stereo not drawn) [Example 27]: 0.38 µM, 0.589 µM and 1.2 µM.
On the same counts, the results for `COC(=O)C1=C(C)NC(C)=C(C(=O)NCCCN2CCC(c3ccccc3)(c3ccccc3)CC2)C1c1ccc2c(c1)OCO2` (stereo not drawn) [Example 11, 1,4-Dihydro-3-methoxycarbonyl-2,6-dimethyl-4-(3,4-methylenedioxyphenyl)-5-(N-(3-(4,4-diphenylpiperidin-1-yl)propyl)carboxamido)pyridine] are 0.302 µM, 2.29 µM and 0.575 µM.
On the same counts, the results for `COC(=O)C1=C(C)NC(C)=C(C(=O)NCCCN2CCC(c3ccccc3)(c3ccccc3)CC2)C1c1ccc(Cl)c([N+](=O)[O-])c1` (stereo not drawn) [Example 16, 4-(4-Chloro-3-nitrophenyl)-1,4-dihydro-3-methoxycarbonyl-2,6-dimethyl-5-(N-(3-(4,4-diphenylpiperidin-1-yl)propyl)carboxamido)pyridine] are 0.427 µM, 0.813 µM and 0.38 µM.
`COC(=O)C1=C(C)NC(C)=C(C(=O)NCCCN2CCC(c3ccccc3)(c3ccccc3)CC2)C1c1ccc(OC)c(OC)c1` (stereo not drawn) [Example 26]: the Ki in experiment [1] (pKi alpha-1 1a) was 0.525 µM; on L-type calcium channel (pKi Ca) it was 0.0871 µM; on α2C receptor (pKi alpha-2 2c), 1.48 µM.
On to `COC(=O)C1=C(C)NC(C)=C(C(=O)NCCCN2CCC(c3ccccc3)(c3ccccc3)CC2)C1c1cc[n+]([O-])cc1` (stereo not drawn) [Example 9, 1,4-Dihydro-3-methoxycarbonyl-2,6-Dimethyl-4-(1-oxido-4-pyridyl)-5-(N-(3-(4,4-diphenylpiperidin-1-yl)propyl)carboxamido)pyridine], for which the Ki in experiment [1] (setting [2]) was 1.7 µM; at L-type calcium channel (setting [3]), 19.1 µM; at α2C receptor (setting [4]), 1.32 µM.
As for `COC(=O)C1=C(C)NC(C)=C(C(=O)NCCCN2CCC(c3ccccc3)(c3ccccc3)CC2)C1c1ccc(C(=O)OC)cc1` (stereo not drawn) [Example 25, 1,4-Dihydro-3-methoxycarbonyl-4-(4-methoxycarbonylphenyl)-2,6-dimethyl-5-(N-(3-(4,4-diphenylpiperidin-1-yl)propyl)carboxamide)pyridine], the Ki in experiment [1] (pKi alpha-1 1a) was 0.646 µM; on L-type calcium channel (pKi Ca) it was 1.15 µM; on α2C receptor (pKi alpha-2 2c) it was 1.02 µM.
The matching figures for `COC(=O)C1=C(C)NC(C)=C(C(=O)NCCCN2CCC(c3ccccc3)(c3ccccc3)CC2)C1c1ccncc1` (stereo not drawn) [Example 5, 1,4-Dihydro-5-methoxycarbonyl-2,6-dimethyl-3-(N-(3-(4,4-diphenylpiperidin-1-yl)propyl)carboxamido)-4-(4-pyridyl)pyridine]: 1.82 µM, 4.57 µM and 24.5 µM.
As for `CCC1=C(C(N)=O)C(c2ccc([N+](=O)[O-])cc2)C(C(=O)NCCCN2CCC(C#N)(c3ccccc3)CC2)=C(CC)N1` (racemic) [(±)-102, 5-Carboxamido-3-{N-[(4-cyano-4-phenylpiperidin-1-ly)propyl]carboxamido-2,6-diethyl-1,4-dihydro-4-(4-nitrophenyl)pyridine hydrochloride hydrate], the Ki was 3.47 µM in experiment [1] (pKi alpha-1 1a, [3H]prazosin, cloned human α1A receptor, LM(tk−) cell membranes); 72.4 µM on L-type calcium channel (setting [5]); 1.74 µM at α2C receptor (pKi alpha-2 2c, [3H]rauwolscine, human α2C receptor, LM(tk−) cells).
Take `COC(=O)C1=C(C)NC(C)=C(C(=O)NCCCN2CCC(c3ccccc3)(c3ccccc3)CC2)C1C1CCCCC1` (stereo not drawn) [Example 6]: the Ki in experiment [1] (pKi alpha-1 1a) was 1.12 µM; on L-type calcium channel (pKi Ca), 1.58 µM; on α2C receptor (pKi alpha-2 2c), 0.24 µM.
With `COC(=O)C1=C(C)NC(C)=C(C(=O)NCCCN2CCC(c3ccccc3)(c3ccccc3)CC2)C1c1ccc2ccccc2c1` (stereo not drawn) [Example 22], the Ki is 0.741 µM in experiment [1] (pKi alpha-1 1a), 0.372 µM at L-type calcium channel (pKi Ca) and 0.631 µM at α2C receptor (pKi alpha-2 2c).

These data come from patent US6608086B2, “Dihydropyridines and new uses thereof” (Synaptic Pharmaceutical Corporation, priority 1993, dated 2003).
